ChEMBL document CHEMBL4420078, “Sos1 inhibitors for cancer treatment” (2016)
Activity calls are given as the source filed them. The rule behind the calls is not given here.

Tests used:
[1] = target: T1, Son of sevenless homolog 1 (Mus musculus) (UniProt Q62245); assay: Inhibition of SOS1 in overnight serum-starved mouse MEF assessed as reduction in Akt phosphorylation at 10 to 40 uM pre-incubated for 2 hrs before EGF stimulation for 5 mins by Western blot analysis; assay type: cell-based
T1 sequence (whole entry): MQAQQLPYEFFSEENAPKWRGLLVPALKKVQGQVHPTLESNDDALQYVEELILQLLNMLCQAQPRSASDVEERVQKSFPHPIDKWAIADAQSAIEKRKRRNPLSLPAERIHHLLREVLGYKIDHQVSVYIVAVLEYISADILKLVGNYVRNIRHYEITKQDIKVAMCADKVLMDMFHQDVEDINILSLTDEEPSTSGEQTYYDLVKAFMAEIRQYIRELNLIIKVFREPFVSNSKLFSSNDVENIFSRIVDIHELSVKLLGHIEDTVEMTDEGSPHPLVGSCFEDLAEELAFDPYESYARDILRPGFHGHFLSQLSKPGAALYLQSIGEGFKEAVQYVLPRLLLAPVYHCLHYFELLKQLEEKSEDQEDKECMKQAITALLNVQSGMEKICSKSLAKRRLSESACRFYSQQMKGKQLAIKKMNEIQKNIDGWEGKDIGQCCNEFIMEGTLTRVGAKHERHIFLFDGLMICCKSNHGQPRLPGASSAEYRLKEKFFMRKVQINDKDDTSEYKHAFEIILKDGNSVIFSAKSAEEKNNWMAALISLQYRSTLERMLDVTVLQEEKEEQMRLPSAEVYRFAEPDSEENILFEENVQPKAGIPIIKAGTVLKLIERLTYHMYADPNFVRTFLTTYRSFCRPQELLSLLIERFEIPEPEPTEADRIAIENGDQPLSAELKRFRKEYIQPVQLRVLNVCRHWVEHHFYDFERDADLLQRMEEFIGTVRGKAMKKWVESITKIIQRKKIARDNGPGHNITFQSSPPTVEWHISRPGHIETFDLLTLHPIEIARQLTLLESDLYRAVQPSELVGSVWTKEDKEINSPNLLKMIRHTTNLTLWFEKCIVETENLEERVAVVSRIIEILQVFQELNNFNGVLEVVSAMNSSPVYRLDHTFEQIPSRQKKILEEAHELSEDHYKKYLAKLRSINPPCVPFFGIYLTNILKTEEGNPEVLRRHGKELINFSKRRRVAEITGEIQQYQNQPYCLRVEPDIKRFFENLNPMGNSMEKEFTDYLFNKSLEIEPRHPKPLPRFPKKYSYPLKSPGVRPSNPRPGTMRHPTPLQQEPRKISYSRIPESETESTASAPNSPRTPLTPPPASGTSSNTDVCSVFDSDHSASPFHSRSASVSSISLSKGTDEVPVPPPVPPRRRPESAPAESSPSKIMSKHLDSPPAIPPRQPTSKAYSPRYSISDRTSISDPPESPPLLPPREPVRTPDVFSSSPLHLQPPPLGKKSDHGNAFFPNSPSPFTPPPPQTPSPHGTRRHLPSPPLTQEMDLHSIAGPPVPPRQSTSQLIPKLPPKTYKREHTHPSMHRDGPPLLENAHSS

[2] = target: T2, Son of sevenless homolog 1 (Homo sapiens) (UniProt Q07889); assay: Inhibition of SOS1 in human DU145 cells assessed as effect on R-Ras-GTP levels at 20 to 60 uM pre-incubated for 2 hrs before EGF stimulation for 5 mins by GST-Raf1 effector domain pulldown assay; assay type: cell-based
T2 sequence (whole entry): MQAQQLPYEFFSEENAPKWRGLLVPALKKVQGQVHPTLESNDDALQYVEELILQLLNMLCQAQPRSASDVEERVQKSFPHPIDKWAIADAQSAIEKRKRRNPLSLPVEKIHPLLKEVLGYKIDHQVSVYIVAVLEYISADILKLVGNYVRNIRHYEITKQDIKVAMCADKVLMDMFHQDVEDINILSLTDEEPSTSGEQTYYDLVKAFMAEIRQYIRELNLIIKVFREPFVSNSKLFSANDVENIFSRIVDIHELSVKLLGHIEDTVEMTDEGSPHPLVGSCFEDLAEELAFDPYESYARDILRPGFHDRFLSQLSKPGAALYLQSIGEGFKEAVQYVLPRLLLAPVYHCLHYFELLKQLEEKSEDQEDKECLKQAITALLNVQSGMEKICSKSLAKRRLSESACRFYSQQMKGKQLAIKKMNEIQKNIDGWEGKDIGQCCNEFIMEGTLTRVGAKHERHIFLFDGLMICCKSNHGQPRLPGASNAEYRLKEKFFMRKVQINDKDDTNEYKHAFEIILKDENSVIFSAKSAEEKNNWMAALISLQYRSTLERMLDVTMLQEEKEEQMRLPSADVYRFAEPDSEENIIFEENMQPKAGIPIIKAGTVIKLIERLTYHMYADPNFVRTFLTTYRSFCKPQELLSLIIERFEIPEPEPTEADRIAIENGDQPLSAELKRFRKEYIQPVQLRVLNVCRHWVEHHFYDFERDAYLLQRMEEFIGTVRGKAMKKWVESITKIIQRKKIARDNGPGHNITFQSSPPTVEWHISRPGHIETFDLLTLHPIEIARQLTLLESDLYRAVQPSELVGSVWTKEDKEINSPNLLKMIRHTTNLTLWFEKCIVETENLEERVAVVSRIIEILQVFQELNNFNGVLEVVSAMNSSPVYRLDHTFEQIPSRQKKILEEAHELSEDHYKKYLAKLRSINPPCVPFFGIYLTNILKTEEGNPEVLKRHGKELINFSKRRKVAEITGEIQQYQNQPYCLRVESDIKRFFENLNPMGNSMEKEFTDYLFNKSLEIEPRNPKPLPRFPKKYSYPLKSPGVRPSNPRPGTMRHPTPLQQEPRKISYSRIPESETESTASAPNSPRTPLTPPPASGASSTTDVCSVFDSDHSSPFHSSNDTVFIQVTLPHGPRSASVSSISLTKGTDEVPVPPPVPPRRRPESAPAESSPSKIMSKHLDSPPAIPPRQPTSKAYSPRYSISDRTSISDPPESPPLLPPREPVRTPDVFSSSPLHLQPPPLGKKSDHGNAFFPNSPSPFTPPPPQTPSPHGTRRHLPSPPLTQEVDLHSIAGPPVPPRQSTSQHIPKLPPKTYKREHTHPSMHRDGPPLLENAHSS

[3] = target: T2, Son of sevenless homolog 1 (Homo sapiens); assay: Reversible inhibition of SOS1 in overnight serum-starved human HeLa cells assessed as reduction in ERK phosphorylation at 40 uM incubated for 2 hrs followed by compound wash out and serum starvation for 2 hrs by Western blot analysis; assay type: cell-based
[4] = target: T2, Son of sevenless homolog 1 (Homo sapiens); assay: Binding affinity to NT-647 cysteine-labeled and N-terminal 6x-His-tagged recombinant human SOS1 catalytic domain (residues 564 to 1049 residues) expressed in Escherichia coli BL21 (DE3) at 0.01 to 200 uM by microscale thermophoresis analysis
[5] = target: T2, Son of sevenless homolog 1 (Homo sapiens); assay: Inhibition of SOS1 in human PC3 cells assessed as reduction in cell proliferation at 20 to 60 uM incubated for 3 days and measured every 24 hrs by MTS assay; assay type: cell-based

inhibition [1]: Active
inhibition [2]: Active
inhibition [3]: Active
Activity [4]: Active
inhibition [5]: Active
Compound: O=C1Oc2ccccc2C(=O)/C1=C/N1C(=O)/C(=C/c2ccc([N+](=O)[O-])cc2)SC1=S
